The assay has as its target SARS-CoV-2 3CLpro (Severe acute respiratory syndrome coronavirus 2, UniProt P0DTD1). The assay is described as follows: cell-based.

Structures are written as SMILES.

As usually defined, the EC50 is the concentration at which the effect is half-maximal. The low end stands for greater potency, the high end for weaker potency. Consider `CCCC1CCC(COC(=O)NC(CC(C)C)C(=O)NC(C=O)CC2CCNC2=O)CC1` [Compound 8b, ((1r,4R)-4-Propylcyclohexyl) methyl ((2S)-4-methyl-1-oxo-1-(((2S)-1-oxo-3-(2-oxopyrrolidin-3-yl)propan-2-yl)amino)pentan-2-yl) carbamate], for which the EC50 was 1030 ± 490 nM.

The values are drawn from publication PMC8673480 (Journal of medicinal chemistry, 2021).
